# Reference: patent US10047096B2, “Substituted pyridobenzodiazepinone-derivatives and use thereof” (Bayer Pharma Aktiengesellschaft, priority 2014, dated 2018)
# Molecular target: human PDGFRβ (Homo sapiens (Human), UniProt P09619)
# Assay: PDGFRβ kinase assay (PDGFRβ-HTRF)
# Assay type: biochemical
# Settings: 10 μM ATP; some mean values from multiple determinations
# Experimental: The PDGFRβ-inhibitory activity of the inventive compounds was determined in the PDGFRβ-HTRF assay described hereinafter.
# The kinase used was a recombinant fusion protein composed of N-terminal GST and a C-terminal fragment of human PDGFRβ (amino acids R561-L1106), expressed in baculovirus-infected insect cells (Sf9) and purified by affinity chromatography (from ProQinase GmbH, Freiburg, Germany). The substrate used for the kinase reaction was biotinylated poly-Glu,Tyr (4:1) copolymer (from Cisbio Bioassays, Codolet, France).
# For the assay, 50 nl of a 100-fold concentrated solution of the test substance in DMSO was pipetted into a black “low-volume 384 well” microtitre plate (from Greiner Bio-One, Frickenhausen, Germany), then 2 μl of a solution of PDGFRβ in assay buffer [50 mM HEPES/NaOH pH 7.5, 10 mM MgCl2, 2.5 mM dithiothreitol, 0.01% (v/v) Triton-X100 (from Sigma)] was added and the mixture was incubated for 15 min, in order to enable preliminary binding of the substance to the enzyme before the kinase reaction. […] The resulting mixture was incubated at 22° C. for 1 h to allow formation of a complex of the biotinylated phosphorylated substrate and the detection reagents.
# Subsequently, the amount of the phosphorylated substrate was evaluated by measuring the resonance energy transfer from the PT66-Eu chelate to the streptavidin-XL665. […] The IC50 values were calculated by a 4-parameter fit.
# human PDGFRβ, sequence (P09619 561-1106): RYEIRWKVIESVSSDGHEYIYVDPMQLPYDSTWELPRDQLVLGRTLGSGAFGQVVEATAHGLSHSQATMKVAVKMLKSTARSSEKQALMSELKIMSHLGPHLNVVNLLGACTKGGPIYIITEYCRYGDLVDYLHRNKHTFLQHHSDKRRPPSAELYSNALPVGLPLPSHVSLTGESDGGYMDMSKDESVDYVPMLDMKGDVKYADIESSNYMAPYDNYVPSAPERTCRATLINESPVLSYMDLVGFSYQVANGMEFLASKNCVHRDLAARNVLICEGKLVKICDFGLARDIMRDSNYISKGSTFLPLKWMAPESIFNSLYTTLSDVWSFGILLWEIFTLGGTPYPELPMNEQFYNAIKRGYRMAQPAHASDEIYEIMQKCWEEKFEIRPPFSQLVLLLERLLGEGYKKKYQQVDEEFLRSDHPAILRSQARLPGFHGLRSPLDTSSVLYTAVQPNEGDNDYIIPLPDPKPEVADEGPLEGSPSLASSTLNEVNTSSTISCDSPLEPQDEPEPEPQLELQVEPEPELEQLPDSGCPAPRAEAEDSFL
row,Compound,IC50 [nM]
1,CCN(CC)CC(C)NCc1ccc2c(c1)NC(=O)c1c(Nc3cc(O)ccc3C)ccnc1N2 (centres unmarked) [Example 112],2.34
2,"N#Cc1ccc2c(c1)NC(=O)c1c(Nc3ccc(NS(=O)(=O)c4ccccc4)c(O)c3)ccnc1N2 [Example 6, N-{4-[(8-Cyano-5-oxo-6,11-dihydro-5H-pyrido[2,3-b][1,5]benzodiazepin-4-yl)amino]-2-hydroxyphenyl}benzenesulphonamide]",689
3,Cc1ccc(O)cc1Nc1ccnc2c1C(=O)Nc1cc(CNCCOCC3CCCO3)ccc1N2 (centres unmarked) [Example 133],7.53
4,"Cc1ccc(O)cc1Nc1ccnc2c1C(=O)Nc1cc(CNCCN3CCOCC3)ccc1N2 [Example 18, 4-[(5-Hydroxy-2-methylphenyl)amino]-8-({[2-(morpholin-4-yl)ethyl]amino}methyl)-6,11-dihydro-5H-pyrido[2,3-b][1,5]benzodiazepin-5-one]",5.19
5,Cc1ccc(O)cc1Nc1ccnc2c1C(=O)Nc1cc(CNC3CCCNC3=O)ccc1N2 (centres unmarked) [Example 139],3.58
6,Cc1ccc(O)cc1Nc1ccnc2c1C(=O)Nc1cc(CNCCN3CCCCCC3)ccc1N2 [Example 111],4.03
7,"N#Cc1ccc2c(c1)NC(=O)c1c(Nc3ccc(Cl)c(O)c3)ccnc1N2 [Example 11, 4-[(4-Chloro-3-hydroxyphenyl)amino]-5-oxo-6,11-dihydro-5H-pyrido[2,3-b][1,5]benzodiazepine-8-carbonitrile]",4.03
8,Cc1ccc(O)cc1Nc1ccnc2c1C(=O)Nc1cc(CN[C@H](C)C3CCCCC3)ccc1N2 [Example 102],1.57
9,"N#Cc1ccc2c(c1)NC(=O)c1c(Nc3cc(O)ccc3Cl)ccnc1N2 [Example 36, 4-[(2-Chloro-5-hydroxyphenyl)amino]-5-oxo-6,11-dihydro-5H-pyrido[2,3-b][1,5]benzodiazepine-8-carbonitrile]",20.1
10,COCCOCCCNCc1ccc2c(c1)NC(=O)c1c(Nc3cc(O)ccc3C)ccnc1N2 [Example 116],4.75
11,"CCN1CCCC1CNCc1ccc2c(c1)NC(=O)c1c(Nc3cc(O)ccc3C)ccnc1N2 (centres unmarked) [Example 92, 8-({[(1-Ethylpyrrolidin-2-yl)methyl]amino}methyl)-4-[(5-hydroxy-2-methylphenyl)amino]-6,11-dihydro-5H-pyrido[2,3-b][1,5]benzodiazepin-5-one]",5.27
12,Cc1ccc(O)cc1Nc1ccnc2c1C(=O)Nc1cc(CNC3CCN(C)CC3)ccc1N2 [Example 138],2.41
13,CCn1ccc(CNCc2ccc3c(c2)NC(=O)c2c(Nc4cc(O)ccc4C)ccnc2N3)n1 [Example 103],3.46
14,"N#Cc1ccc2c(c1)NC(=O)c1c(Nc3ccc(O)c(O)c3)ccnc1N2 [Example 12, 4-[(3,4-Dihydroxyphenyl)amino]-5-oxo-6,11-dihydro-5H-pyrido[2,3-b][1,5]benzodiazepine-8-carbonitrile]",84.4
15,Cc1ccc(O)cc1Nc1ccnc2c1C(=O)Nc1cc(CNC3CCOC3)ccc1N2 (centres unmarked) [Example 99],2.97
16,Cc1ccc(O)cc1Nc1ccnc2c1C(=O)Nc1cc(CNc3ccc4[nH]cnc4c3)ccc1N2 [Example 104],12.2
17,"Cc1ccc(O)cc1Nc1ccnc2c1C(=O)Nc1cc(C(=O)NCc3cccc(Cl)c3)ccc1N2 [Example 225, N-(3-Chlorobenzyl)-4-[(5-hydroxy-2-methylphenyl)amino]-5-oxo-6,11-dihydro-5H-pyrido[2,3-b][1,5]benzodiazepine-8-carboxamide]",14.1
18,"Cc1ccc(Nc2ccnc3c2C(=O)Nc2cc(C#N)ccc2N3)cc1O [Example 3, 4-[(3-Hydroxy-4-methylphenyl)amino]-5-oxo-6,11-dihydro-5H-pyrido[2,3-b][1,5]benzodiazepine-8-carbonitrile]",3.82

# Next, values leading:
row,IC50 [nM],Compound
1,3.52,Cc1ccc(O)cc1Nc1ccnc2c1C(=O)Nc1cc(CNCC3CC3)ccc1N2 [Example 127]
2,10.1,"Cc1cc(F)c(Nc2ccnc3c2C(=O)Nc2cc(C(=O)N4CCCC(O)C4)ccc2N3)cc1O (racemic) [Example 82, rac-4-[(2-Fluoro-5-hydroxy-4-methylphenyl)amino]-8-[(3-hydroxypiperidin-1-yl)carbonyl]-6, 11-dihydro-5H-pyrido[2,3-b][1,5]benzodiazepin-5-one]"
3,1.03,Cc1cc(F)c(Nc2ccnc3c2C(=O)Nc2cc(CN4C[C@@H](O)[C@@H](O)C4)ccc2N3)cc1O [Example 210]
4,7.72,Cc1ccc(O)cc1Nc1ccnc2c1C(=O)Nc1cc(CNCC(C)(C)N(C)C)ccc1N2 [Example 144]
5,10.7,"Cc1cc(F)c(Nc2ccnc3c2C(=O)Nc2cc(C(=O)N4CCC(CCO)CC4)ccc2N3)cc1O [Example 161, 4-[(2-Fluoro-5-hydroxy-4-methylphenyl)amino]-8-{[4-(2-hydroxyethyl)piperidin-1-yl]carbonyl}-6,11-dihydro-5H-pyrido[2,3-b][1,5]benzodiazepin-5-one]"
6,0.861,"Cc1cc(F)c(Nc2ccnc3c2C(=O)Nc2cc(CN4CCNCC4)ccc2N3)cc1O [Example 197, 4-[(2-Fluoro-5-hydroxy-4-methylphenyl)amino]-8-(piperazin-1-ylmethyl)-6,11-dihydro-5H-pyrido[2,3-b][1,5]benzodiazepin-5-one]"
7,1.22,"Cc1cc(F)c(Nc2ccnc3c2C(=O)Nc2cc(CNC4CC(OC(C)C)C4)ccc2N3)cc1O (centres unmarked) [Example 190, 4-[(2-Fluoro-5-hydroxy-4-methylphenyl)amino]-8-{[(3-isopropoxycyclobutyl)amino]methyl}-6,11-dihydro-5H-pyrido[2,3-b][1,5]benzodiazepin-5-one]"
8,14.6,"Cc1cc(F)c(Nc2ccnc3c2C(=O)Nc2cc(C(=O)N4CCCC(CCO)C4)ccc2N3)cc1O (racemic) [Example 179, rac-4-[(2-Fluoro-5-hydroxy-4-methylphenyl)amino]-8-{[3-(2-hydroxyethyl)piperidin-1-yl]carbonyl}-6,11-dihydro-5H-pyrido[2,3-b][1,5]benzodiazepin-5-one]"
9,1.31,"Cc1cc(F)c(Nc2ccnc3c2C(=O)Nc2cc(CNCCO)ccc2N3)cc1O [Example 167, 4-[(2-Fluoro-5-hydroxy-4-methylphenyl)amino]-8-{[(2-hydroxyethyl)amino]methyl}-6,11-dihydro-5H-pyrido[2,3-b][1,5]benzodiazepin-5-one]"
10,1.87,"Cc1cc(F)c(Nc2ccnc3c2C(=O)Nc2cc(CN(C)CCN(C)C)ccc2N3)cc1O [Example 203, 8-({[2-(Dimethylamino)ethyl](methyl)amino}methyl)-4-[(2-fluoro-5-hydroxy-4-methylphenyl)amino]-6,11-dihydro-5H-pyrido[2,3-b][1,5]benzodiazepin-5-one]"
11,1.31,"Cc1cc(F)c(Nc2ccnc3c2C(=O)Nc2cc(C(=O)NC4CCCC(O)C4)ccc2N3)cc1O (centres unmarked) [Example 81, 4-[(2-Fluoro-5-hydroxy-4-methylphenyl)amino]-N-(3-hydroxycyclohexyl)-5-oxo-6,11-dihydro-5H-pyrido[2,3-b][1,5]benzodiazepine-8-carboxamide]"
12,3.51,"Cc1cc(F)c(Nc2ccnc3c2C(=O)Nc2cc(CN4CCCC(OCC(F)(F)F)C4)ccc2N3)cc1O (racemic) [Example 89, rac-4-[(2-Fluoro-5-hydroxy-4-methylphenyl)amino]-8-{[3-(2,2,2-trifluoroethoxy)piperidin-1-yl]methyl}-6,11-dihydro-5H-pyrido[2,3-b][1,5]benzodiazepin-5-one]"
13,1.92,Cc1ccc(O)cc1Nc1ccnc2c1C(=O)Nc1cc(CNCc3ccc(F)cc3)ccc1N2 [Example 119]
14,3.61,CCC(C)CNCc1ccc2c(c1)NC(=O)c1c(Nc3cc(O)ccc3C)ccnc1N2 (centres unmarked) [Example 153]
15,1.71,"Cc1cc(F)c(Nc2ccnc3c2C(=O)Nc2cc(CN4CCC(CO)C4)ccc2N3)cc1O (racemic) [Example 177, rac-4-[(2-Fluoro-5-hydroxy-4-methylphenyl)amino]-8-{[3-(hydroxymethyl)pyrrolidin-1-yl]methyl}-6,11-dihydro-5H-pyrido[2,3-b][1,5]benzodiazepin-5-one]"
16,15.3,"Cc1cc(F)c(Nc2ccnc3c2C(=O)Nc2cc(C#N)ccc2N3)cc1O [Example 27, 4-[(2-Fluoro-5-hydroxy-4-methylphenyl)amino]-5-oxo-6,11-dihydro-5H-pyrido[2,3-b][1,5]benzodiazepine-8-carbonitrile]"
17,1.39,"Cc1cc(F)c(Nc2ccnc3c2C(=O)Nc2cc(CN4CCCC(O)CC4)ccc2N3)cc1O (racemic) [Example 62, rac-4-[(2-Fluoro-5-hydroxy-4-methylphenyl)amino]-8-[(4-hydroxyazepan-1-yl)methyl]-6,11-dihydro-5H-pyrido[2,3-b][1,5]benzodiazepin-5-one]"
18,3.39,"Cc1cc(F)c(Nc2ccnc3c2C(=O)Nc2cc(CN4CC[C@@H](N(C)C)C4)ccc2N3)cc1O [Example 217, 8-{[(3R)-3-(Dimethylamino)pyrrolidin-1-yl]methyl}-4-[(2-fluoro-5-hydroxy-4-methylphenyl)amino]-6,11-dihydro-5H-pyrido[2,3-b][1,5]benzodiazepin-5-one]"
19,9.47,"N#Cc1ccc2c(c1)NC(=O)c1c(Nc3cc(O)c(Br)cc3F)ccnc1N2 [Example 7, 4-[(4-Bromo-2-fluoro-5-hydroxyphenyl)amino]-5-oxo-6,11-dihydro-5H-pyrido[2,3-b][1,5]benzodiazepine-8-carbonitrile]"
20,3.48,Cc1ccc(O)cc1Nc1ccnc2c1C(=O)Nc1cc(CNCCN3CCCC3=O)ccc1N2 [Example 141]
